From ChEMBL document CHEMBL1201862, “PubChem BioAssay data set” (2004)
Activity calls are given as the source filed them.

How the values were obtained:
[1] = OVCAR-3 cell viability loss – plate reader, dry powder samples, PAX8 inhibitor project, dose response (AID 743044); type: functional, cell-based
[2] = OVCAR8 cell viability loss – plate reader, dry powder samples, PAX8 project, dose response (AID 743197); type: functional, cell-based; details: OVCAR-8
[3] = toxicity toward immortalized ovarian surface epithelium – cell-based, plate reader, dry powder samples, cytotoxicity control for PAX8 inhibitor project, dose response (AID 743045); type: functional
[4] = target: Paired box protein Pax-8 (Homo sapiens, UniProt Q06710); experiment: PAX8 transcriptional activity inhibition in RMG-I – RMG-I cells, luciferase, cherry-pick, dose response (AID 687027); type: functional, cell-based;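 further: luciferase reporter driven by Pax8 target thyroperoxidase promoter measured by SteadyGlo luminescence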
Sequence of Paired box protein Pax-8 (Q06710 whole entry): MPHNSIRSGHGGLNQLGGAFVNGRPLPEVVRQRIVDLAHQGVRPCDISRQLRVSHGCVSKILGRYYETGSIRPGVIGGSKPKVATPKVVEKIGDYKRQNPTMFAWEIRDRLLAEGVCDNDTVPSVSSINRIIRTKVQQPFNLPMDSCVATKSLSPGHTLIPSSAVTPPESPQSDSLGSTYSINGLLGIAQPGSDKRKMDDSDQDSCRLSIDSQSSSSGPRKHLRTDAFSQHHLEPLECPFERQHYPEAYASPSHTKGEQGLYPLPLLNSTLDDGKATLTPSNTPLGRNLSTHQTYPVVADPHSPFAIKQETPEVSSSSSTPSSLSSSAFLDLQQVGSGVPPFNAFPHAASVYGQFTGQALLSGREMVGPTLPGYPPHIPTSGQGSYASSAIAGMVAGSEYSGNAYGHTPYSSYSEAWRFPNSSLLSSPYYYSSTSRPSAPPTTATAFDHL

[5] = A2780 cell killing – plate reader, dry powder samples, cytotoxicity control, dose response (AID 743046); type: functional, cell-based
[6] = IGROV1 cell killing – plate reader, dry powder samples, PAX8 inhibitor project, dose response (AID 743043); type: functional, cell-based; details: IGROV-1
[7] = target: T1, NAD-dependent protein deacylase sirtuin-5, mitochondrial (Homo sapiens, UniProt Q9NXA8); experiment: sirtuin-5 deacylation blockers, concentration series – biochemical, fluorescence imaging, cherry-pick, set 5, dose response (AID 720591);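 further: desuccinylation of succinyl peptide AMC substrate read as fluorescence after trypsin release; potency of inhibitors that lower fluorescence and may act on trypsin instead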
T1 sequence (Q9NXA8 whole entry): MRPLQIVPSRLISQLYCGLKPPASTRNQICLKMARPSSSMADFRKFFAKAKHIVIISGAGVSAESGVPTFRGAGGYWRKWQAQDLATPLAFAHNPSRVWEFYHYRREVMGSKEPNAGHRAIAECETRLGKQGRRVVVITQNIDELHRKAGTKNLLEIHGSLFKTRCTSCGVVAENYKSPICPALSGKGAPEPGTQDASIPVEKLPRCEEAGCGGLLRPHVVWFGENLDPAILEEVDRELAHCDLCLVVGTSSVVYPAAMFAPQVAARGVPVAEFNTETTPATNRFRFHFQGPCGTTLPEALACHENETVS

[8] = target: T1, NAD-dependent protein deacylase sirtuin-5, mitochondrial; experiment: blockers of sirtuin-5 peptide desuccinylation – biochemical, fluorescence imaging, cherry-pick, set 6, dose response (AID 720597)
[9] = HeLa cell viability loss – 24 h, dry powder, set 2, cytotoxicity control, dose response (AID 651774); type: functional, cell-based
[10] = target: Endoplasmic reticulum aminopeptidase 1 (Homo sapiens, UniProt Q9NZ08); experiment: inhibition of human ERAP1 enzyme activity – biochemical, cherry-pick, set 2, plate reader, dose response (AID 743314)
Sequence of Endoplasmic reticulum aminopeptidase 1 (Q9NZ08 whole entry): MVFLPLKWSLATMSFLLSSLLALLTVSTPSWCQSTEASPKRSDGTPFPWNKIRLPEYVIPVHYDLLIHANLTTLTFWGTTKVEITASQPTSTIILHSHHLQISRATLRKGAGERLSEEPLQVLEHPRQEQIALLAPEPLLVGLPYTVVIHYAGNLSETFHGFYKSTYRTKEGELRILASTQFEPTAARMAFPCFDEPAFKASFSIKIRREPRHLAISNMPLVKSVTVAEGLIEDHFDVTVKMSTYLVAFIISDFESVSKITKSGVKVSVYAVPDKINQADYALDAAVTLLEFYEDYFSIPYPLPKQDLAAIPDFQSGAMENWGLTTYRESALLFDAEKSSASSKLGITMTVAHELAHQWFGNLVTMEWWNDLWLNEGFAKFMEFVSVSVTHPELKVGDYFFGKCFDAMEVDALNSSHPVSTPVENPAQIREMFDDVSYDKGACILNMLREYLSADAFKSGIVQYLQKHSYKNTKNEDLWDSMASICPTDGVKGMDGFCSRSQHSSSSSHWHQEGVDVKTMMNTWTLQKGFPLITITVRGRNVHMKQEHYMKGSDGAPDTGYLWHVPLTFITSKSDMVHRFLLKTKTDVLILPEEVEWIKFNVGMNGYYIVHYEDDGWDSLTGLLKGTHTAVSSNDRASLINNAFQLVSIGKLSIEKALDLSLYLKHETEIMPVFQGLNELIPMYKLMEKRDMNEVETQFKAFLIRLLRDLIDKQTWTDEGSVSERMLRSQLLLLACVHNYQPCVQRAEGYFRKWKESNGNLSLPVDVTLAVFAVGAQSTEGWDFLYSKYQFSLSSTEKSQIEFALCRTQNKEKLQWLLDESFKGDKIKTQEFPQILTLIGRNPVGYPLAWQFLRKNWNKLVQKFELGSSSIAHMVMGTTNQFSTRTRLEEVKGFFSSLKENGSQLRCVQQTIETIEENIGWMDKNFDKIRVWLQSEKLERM

[11] = cells; type: functional, cell-based; details: HEK-CNG
[12] = blockers of HIV-1 ZM109 envelope-driven cell-cell fusion – HeLa effector, CEM target cells, luciferase, cherry-pick, dose response (AID 652058); type: functional, cell-based;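 further: luciferase signal from HIV-1 Env mediated cell-cell fusion of effector and target cells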
[13] = target: Galanin receptor type 3 (Homo sapiens, UniProt O60755); experiment: Fluorescence-based cell-based primary high throughput dose response assay to identify antagonists of the Galanin Receptor 3 (GalR3).; type: functional
Sequence of Galanin receptor type 3 (O60755 whole entry): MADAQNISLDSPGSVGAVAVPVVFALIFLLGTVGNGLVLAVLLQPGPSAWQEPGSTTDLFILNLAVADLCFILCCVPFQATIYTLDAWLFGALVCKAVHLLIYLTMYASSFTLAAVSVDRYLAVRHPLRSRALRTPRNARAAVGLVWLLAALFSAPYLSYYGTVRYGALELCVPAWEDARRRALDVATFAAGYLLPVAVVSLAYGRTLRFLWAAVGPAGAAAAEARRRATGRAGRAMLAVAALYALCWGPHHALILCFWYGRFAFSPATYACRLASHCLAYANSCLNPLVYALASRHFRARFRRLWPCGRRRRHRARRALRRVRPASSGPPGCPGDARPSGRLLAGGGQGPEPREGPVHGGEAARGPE

[14] = target: Cytochrome P450 2C19 (Homo sapiens, UniProt P33261); experiment: Cytochrome panel assay with activity outcomes. Panel member name: p450-cyp2c19 Compounds with AC50 equal or less than 10 uM are considered active; type: functional; details: read-out: AC50
Sequence of Cytochrome P450 2C19 (P33261 whole entry): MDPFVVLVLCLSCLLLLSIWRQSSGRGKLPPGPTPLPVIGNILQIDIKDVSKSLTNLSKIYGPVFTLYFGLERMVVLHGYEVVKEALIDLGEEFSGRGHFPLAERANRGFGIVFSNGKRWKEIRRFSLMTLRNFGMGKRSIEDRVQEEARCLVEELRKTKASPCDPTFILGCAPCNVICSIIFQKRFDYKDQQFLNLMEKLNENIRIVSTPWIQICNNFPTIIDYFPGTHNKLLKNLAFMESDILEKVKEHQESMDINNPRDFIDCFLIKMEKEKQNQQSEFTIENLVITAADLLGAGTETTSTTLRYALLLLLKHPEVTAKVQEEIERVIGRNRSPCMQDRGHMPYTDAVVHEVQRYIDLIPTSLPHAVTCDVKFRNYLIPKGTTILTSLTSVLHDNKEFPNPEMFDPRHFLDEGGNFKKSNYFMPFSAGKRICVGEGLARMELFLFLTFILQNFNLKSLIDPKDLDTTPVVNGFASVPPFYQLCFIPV

[15] = HEK-293T viability loss, compound-treated – cell-based, uHTS hits, cytotoxicity control for B/T-cell NF-kB inhibitor project, dose response (AID 489019); type: functional;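 further: IC50 reflects cytotoxicity as loss of cell viability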
[16] = target: COUP transcription factor 2 (Homo sapiens, UniProt P24468); experiment: Luminescence-based cell-based high throughput dose response assay to identify inhibitors of COUP-TFII (NR2F2).; type: functional;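 further: HEK293 cells transiently cotransfected with COUP-TFII expression vector and reporter; luciferase reporter luminescence driven by COUP-TFII from the pX2-168 reporter plasmid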
[17] = target: Cytochrome P450 3A4 (Homo sapiens, UniProt P08684);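 further: CYP3A4 tested as one member of a cytochrome P450 panel screen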
Sequence of Cytochrome P450 3A4 (P08684 whole entry): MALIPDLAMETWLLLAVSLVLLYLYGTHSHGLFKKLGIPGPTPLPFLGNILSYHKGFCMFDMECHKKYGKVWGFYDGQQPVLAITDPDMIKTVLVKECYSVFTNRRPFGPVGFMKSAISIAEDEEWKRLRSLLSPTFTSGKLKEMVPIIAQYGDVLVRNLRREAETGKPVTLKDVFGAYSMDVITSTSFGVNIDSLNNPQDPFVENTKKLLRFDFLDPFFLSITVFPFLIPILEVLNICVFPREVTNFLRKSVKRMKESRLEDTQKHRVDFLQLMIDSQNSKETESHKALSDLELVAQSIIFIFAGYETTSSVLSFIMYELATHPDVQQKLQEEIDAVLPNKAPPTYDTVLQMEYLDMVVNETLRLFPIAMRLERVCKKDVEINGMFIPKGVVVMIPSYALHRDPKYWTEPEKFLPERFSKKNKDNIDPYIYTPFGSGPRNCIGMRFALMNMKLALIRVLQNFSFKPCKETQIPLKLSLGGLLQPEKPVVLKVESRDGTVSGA

[18] = tested on: INS1; experiment: INS-1E survival protection against cytokine death – cell-based, luminescence, retest, dose response (AID 449756); type: functional; details: Rattus norvegicus;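 further: cell death triggered by IL-1 beta plus TNF-alpha plus IFN-gamma mixture; protective hits raise ATP signal compared with cytokine alone wells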
[19] = tested on: Jurkat; experiment: blockers of NF-kB activation in T cells – Jurkat, luciferase reporter, luminescence, B- and T-cell, dose response (AID 489004); type: functional, cell-based; details: Homo sapiens;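 further: NF-kB luciferase reporter Jurkat cells stimulated with PMA plus ionomycin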
[20] = HIV-1 AD8 envelope cell-cell fusion blockers – cherry-pick, dose response (AID 652062); type: functional, cell-based;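 further: luciferase signal from cell-cell fusion driven by HIV-1 clade B AD8 Env; potency is for inhibitors of fusion seen as a drop in luminescence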
[21] = blockers of HIV-1 envelope-mediated cell-cell fusion – cherry-pick, dose response (AID 652057); type: functional, cell-based
[22] = cells
[23] = HGIII-sPLA2 enzyme inhibition potency – biochemical, QFRET, IC50, dose response (AID 743457);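 further: green fluorescence rise as the enzyme cleaves BODIPY PC-A2 in liposomes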
[24] = MIN6 cell viability loss – mouse insulinoma, cytotoxicity control, dose response (AID 2122); type: functional;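 further: confirmatory high-throughput counterscreen run to flag cytotoxic compounds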
[25] = Luminescence Cell-Based Dose Response HTS to Identify Activators of Luciferase Translation or Activity in H4 […] Cells. [Related pubchem assays: 1829 (Project Summary), 1814 (Primary HTS)]; type: functional
[26] = ATP-based viability loss in HEK293T cells – cell-based, CellTiter-Glo luminescence, cherry-picked samples, set 4, cytotoxicity control, dose response (AID 743441); type: functional; details: HEK293
[27] = tested on: H4; experiment: Luminescence Cell-Based Dose Response HTS to Identify Activators of 5'UTR Stem-Loop Driven Prion Protein mRNA Translation in H4 Neuroglioblastoma Cells. [Related pubchem assays: 1829 (Project Summary), 1814 (Primary HTS)]; type: functional; details: Homo sapiens
[28] = target: Protein Wnt-3a (Mus musculus, UniProt P27467); experiment: antagonism of Wnt3a pathway luciferase reporter – Wnt-LIGHT cells, luminescence, selectivity assay for Gli-SUFU antagonist project, dose response (AID 651570); type: functional; details: read-out: IC50_Mean;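 further: Wnt-LIGHT reporter cells stimulated with conditioned medium from Wnt3a-producing cells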
Sequence of Protein Wnt-3a (P27467 whole entry): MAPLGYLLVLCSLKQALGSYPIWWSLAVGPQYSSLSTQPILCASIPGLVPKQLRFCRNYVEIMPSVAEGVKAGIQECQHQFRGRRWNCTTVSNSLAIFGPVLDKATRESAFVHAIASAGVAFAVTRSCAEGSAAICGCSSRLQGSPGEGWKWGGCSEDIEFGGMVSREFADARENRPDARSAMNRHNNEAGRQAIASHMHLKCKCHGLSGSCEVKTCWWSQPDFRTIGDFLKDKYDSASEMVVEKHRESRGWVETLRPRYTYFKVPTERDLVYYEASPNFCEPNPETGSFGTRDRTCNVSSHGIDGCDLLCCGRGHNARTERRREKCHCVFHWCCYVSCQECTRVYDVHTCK

[29] = decrease of insulin promoter-GFP reporter – imaging, high-content screening, mouse beta cells (AID 1628); type: functional; details: MIN6
[30] = general mammalian cell viability loss – inhibitor set, cherry-pick, set 2, cytotoxicity control for miR-122 modulator project, dose response (AID 720697); type: functional, cell-based
[31] = target: T2, Oxysterols receptor LXR-beta (Homo sapiens, UniProt P55055); type: functional, cell-based
T2 sequence (P55055 whole entry): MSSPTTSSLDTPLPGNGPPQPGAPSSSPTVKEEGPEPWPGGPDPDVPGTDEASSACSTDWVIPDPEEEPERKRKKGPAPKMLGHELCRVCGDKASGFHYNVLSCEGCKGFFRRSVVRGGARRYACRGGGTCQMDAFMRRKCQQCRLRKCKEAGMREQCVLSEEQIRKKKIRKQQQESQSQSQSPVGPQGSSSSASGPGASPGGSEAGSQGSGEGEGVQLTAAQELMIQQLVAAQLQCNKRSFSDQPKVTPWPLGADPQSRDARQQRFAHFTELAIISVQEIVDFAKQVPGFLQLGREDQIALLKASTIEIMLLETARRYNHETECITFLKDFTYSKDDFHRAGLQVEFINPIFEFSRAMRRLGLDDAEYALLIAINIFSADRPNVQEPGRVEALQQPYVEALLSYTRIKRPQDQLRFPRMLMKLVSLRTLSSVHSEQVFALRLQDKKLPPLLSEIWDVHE

[32] = cells; remark: listed apart in the source
[33] = viability loss in HepG2 hepatoma cells – cell-based, ATP luminescence, cherry-pick, activator set 2, cytotoxicity control, dose response (AID 1053143); type: functional
[34] = potency of ADAM10 substrate cleavage blockers – biochemical, QFRET, dose response (AID 743254);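 further: ADAM10 enzyme with the DM2 quenched FRET peptide as substrate; EDANS fluorescence gain as the protease cuts the substrate; inhibitor potency against ADAM10 proteolytic activity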
[35] = target: Disintegrin and metalloproteinase domain-containing protein 17 (Homo sapiens, UniProt P78536); experiment: inhibition of ADAM17 substrate cleavage – biochemical, quenched FRET substrate, counter-screen for ADAM10 exosite inhibitor project, dose response (AID 743253)
Sequence of Disintegrin and metalloproteinase domain-containing protein 17 (P78536 whole entry, the tested form may be a part): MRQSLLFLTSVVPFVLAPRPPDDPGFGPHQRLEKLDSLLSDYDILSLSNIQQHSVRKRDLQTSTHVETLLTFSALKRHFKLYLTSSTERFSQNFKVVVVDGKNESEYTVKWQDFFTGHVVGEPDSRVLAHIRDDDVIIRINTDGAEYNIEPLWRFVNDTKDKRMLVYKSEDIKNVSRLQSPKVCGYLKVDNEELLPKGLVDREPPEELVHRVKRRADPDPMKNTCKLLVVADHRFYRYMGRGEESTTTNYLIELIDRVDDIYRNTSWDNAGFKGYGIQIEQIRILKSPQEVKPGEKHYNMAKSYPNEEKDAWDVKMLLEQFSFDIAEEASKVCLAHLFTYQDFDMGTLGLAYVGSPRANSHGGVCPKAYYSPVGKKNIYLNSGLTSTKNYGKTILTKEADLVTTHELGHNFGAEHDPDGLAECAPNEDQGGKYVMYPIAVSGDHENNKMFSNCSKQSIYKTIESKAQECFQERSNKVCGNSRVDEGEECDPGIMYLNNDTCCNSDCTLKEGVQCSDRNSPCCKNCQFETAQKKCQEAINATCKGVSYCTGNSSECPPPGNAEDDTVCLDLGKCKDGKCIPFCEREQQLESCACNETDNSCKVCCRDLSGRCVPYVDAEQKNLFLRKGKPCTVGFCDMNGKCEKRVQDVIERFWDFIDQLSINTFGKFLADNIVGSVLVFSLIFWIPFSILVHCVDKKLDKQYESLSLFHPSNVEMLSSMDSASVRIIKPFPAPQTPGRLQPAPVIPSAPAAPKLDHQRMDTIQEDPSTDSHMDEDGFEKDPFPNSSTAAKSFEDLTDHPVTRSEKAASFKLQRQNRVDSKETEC

[36] = rescue of ΔF508 CFTR function, airway epithelium – human bronchial epithelial cells, plate reader, cherry-pick, two tests, dose response (AID 743267); type: functional, cell-based
[37] = target: T3, Methionyl-tRNA synthetase, putative (Trypanosoma brucei brucei, UniProt Q38C91); type: functional, Trypanosoma brucei brucei strain 927/4 GUTat10.1
T3 sequence (Q38C91 whole entry): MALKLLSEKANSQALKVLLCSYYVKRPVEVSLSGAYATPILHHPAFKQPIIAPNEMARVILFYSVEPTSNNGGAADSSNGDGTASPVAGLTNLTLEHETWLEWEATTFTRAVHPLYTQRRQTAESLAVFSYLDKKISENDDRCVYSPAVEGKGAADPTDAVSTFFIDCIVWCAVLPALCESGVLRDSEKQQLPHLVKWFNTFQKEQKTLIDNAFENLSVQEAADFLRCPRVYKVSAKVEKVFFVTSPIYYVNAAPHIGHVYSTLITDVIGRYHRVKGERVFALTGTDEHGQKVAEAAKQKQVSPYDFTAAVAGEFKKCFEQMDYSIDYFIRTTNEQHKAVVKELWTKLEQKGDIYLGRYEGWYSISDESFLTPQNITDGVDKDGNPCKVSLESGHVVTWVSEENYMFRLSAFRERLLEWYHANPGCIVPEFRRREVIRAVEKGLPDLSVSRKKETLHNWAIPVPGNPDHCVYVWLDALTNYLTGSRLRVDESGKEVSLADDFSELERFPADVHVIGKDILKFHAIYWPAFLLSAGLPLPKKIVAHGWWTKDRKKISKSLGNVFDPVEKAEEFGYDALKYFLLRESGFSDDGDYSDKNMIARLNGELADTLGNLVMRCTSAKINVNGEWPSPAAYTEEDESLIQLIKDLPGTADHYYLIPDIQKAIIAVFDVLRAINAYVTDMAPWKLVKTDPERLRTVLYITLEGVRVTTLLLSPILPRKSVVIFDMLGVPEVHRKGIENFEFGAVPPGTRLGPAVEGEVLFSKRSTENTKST

[38] = Late stage counterscreen for inhibitors of Trypanosoma brucei methionyl tRNA synthetase (MetRS): Luminescence-based cell-based high throughput dose response assay to identify compounds that are cytotoxic to Jurkat human T lymphocyte cells.; type: functional
[39] = Counterscreen for inhibitors of Trypanosoma brucei methionyl tRNA synthetase (MetRS): Luminescence-based cell-based high throughput dose response assay to identify compounds that are cytotoxic to Jurkat human T lymphocyte cells.; type: functional
[40] = target: T3, Methionyl-tRNA synthetase, putative; type: functional, Trypanosoma brucei brucei strain 927/4 GUTat10.1; remark: listed apart in the source
[41] = target: T2, Oxysterols receptor LXR-beta; type: functional, cell-based; remark: listed apart in the source
[42] = viability loss in HepG2 liver cells – cell-based, ATP luminescence, cherry-pick, set 6, cytotoxicity control, dose response (AID 1053125); type: functional
[43] = tested on: HeLa; experiment: ATP-based viability loss in HeLa cells – cell-based, CellTiter-Glo luminescence, cherry-pick samples, cytotoxicity control for MITF activator project, dose response (AID 540259); type: functional; details: Homo sapiens
[44] = cells; details: HEK293
[45] = target: Kallikrein-7 (Homo sapiens, UniProt P49862); experiment: Fluorescence Intensity-based biochemical primary high throughput dose response assay to identify activators of kallikrein-7 (K7) zymogen.
Sequence of Kallikrein-7 (P49862 whole entry): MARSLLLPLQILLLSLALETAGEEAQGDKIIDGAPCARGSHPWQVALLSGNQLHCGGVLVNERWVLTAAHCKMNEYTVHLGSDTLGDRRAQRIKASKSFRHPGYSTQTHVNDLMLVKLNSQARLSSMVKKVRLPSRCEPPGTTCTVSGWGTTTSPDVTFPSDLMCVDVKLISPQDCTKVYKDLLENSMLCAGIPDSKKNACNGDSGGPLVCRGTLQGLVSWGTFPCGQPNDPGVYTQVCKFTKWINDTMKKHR

[46] = target: T4, Trace amine-associated receptor 1 (Homo sapiens, UniProt Q96RJ0); experiment: Counterscreen for antagonists of the human trace amine associated receptor 1 (hTAAR1): Fluorescence-based cell-based high throughput dose response assay to identify TAAR1 Agonists.; type: functional
T4 sequence (Q96RJ0 whole entry): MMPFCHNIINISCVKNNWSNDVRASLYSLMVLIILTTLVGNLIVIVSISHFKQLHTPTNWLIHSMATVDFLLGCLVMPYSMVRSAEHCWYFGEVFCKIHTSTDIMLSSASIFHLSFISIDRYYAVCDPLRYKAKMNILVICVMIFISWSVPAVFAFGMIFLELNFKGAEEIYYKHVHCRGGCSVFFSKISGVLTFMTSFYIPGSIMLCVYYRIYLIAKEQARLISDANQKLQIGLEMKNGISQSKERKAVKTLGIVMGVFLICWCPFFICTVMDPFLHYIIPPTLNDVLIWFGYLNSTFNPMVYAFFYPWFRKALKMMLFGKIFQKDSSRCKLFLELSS

[47] = Counterscreen for antagonists of the human trace amine associated receptor 1 (hTAAR1): Fluorescence-based cell-based high throughput dose response assay to identify nonselective Ga16 antagonists.; type: functional
[48] = target: T4, Trace amine-associated receptor 1; experiment: Fluorescence-based cell-based high throughput dose response assay to identify antagonists of the human trace amine associated receptor 1 (TAAR1).; type: functional
[49] = Counterscreen for […] of the human trace amine associated receptor 1 (TAAR1): Fluorescence-based cell-based high throughput dose response assay to identify nonselective Ga16 agonists.; type: functional

C[C@@H]1CCCCO[C@H](CN(C)Cc2ccncc2)[C@H](C)CN([C@@H](C)CO)C(=O)c2cc(NC(=O)NC3CCCCC3)ccc2O1
AC50 [1]: 18.7 µM (active)
AC50 [2]: 68.3 µM (active)
AC50 [3]: 36.7 µM (active)
AC50 [4]: 11.3 µM (active)
AC50 [5]: 36.1 µM (active)
AC50 [6]: 25.5 µM (active)

COc1ccc(-c2csc3ncnc(O)c23)cc1
AC50 [7]: 15.6 µM (active)

COc1ccc(S(=O)(=O)Nc2ccc3c(c2)CC(=O)N([C@H](C)CO)C[C@@H](C)[C@@H](CN(C)Cc2ccc(C(F)(F)F)cc2)O3)cc1
AC50 [8]: > 30 µM (inactive)

CCc1ccc(C(=O)Nc2nnnn2CC)cc1
AC50 [9]: > 70 µM (inactive)

CN1c2ccc(-c3ccc(C#N)cc3)cc2[C@@H]2[C@@H](CCN2C(=O)CC2CC2)[C@@H]1CO
AC50 [10]: 19.8 µM (active)

Cc1cc(N2CCN(c3nc4ccccc4s3)CC2)n2ncnc2n1
EC50 [11]: > 29.9 µM (inactive)
AC50 [12]: 6.41 µM (active)
IC50 [13]: 1.43 µM (active)
AC50 [14]: 14.1 µM (inconclusive)
IC50 [15]: > 80 µM (inactive)
IC50 [16]: 6.41 µM (active)
AC50 [17]: 39.8 µM (inconclusive)
AC50 [18]: 5.06 µM (active)
IC50 [19]: > 80 µM (inactive)
AC50 [20]: 5.3 µM (active)
AC50 [21]: 4.63 µM (active)

Cc1cccn2c(=O)c(/C=C(\C#N)C(N)=O)c(Oc3ccccc3)nc12
AC50 [22]: 8.22 µM (active)

CCCCn1c(S)nnc1C12CC3CC(CC(C3)C1)C2
IC50 [23]: > 122 µM (inactive)

COc1ccc(Cn2c(-c3ccc(Cl)cc3)c[n+]3ccccc23)cc1
IC50 [24]: 1.02 µM (active)
EC50 [25]: > 120 µM (not active)
AC50 [26]: 39.3 µM (active)
EC50 [27]: > 120 µM (not active)
IC50 [28]: 36.9 µM (inactive)
IC50 [29]: 1.35 µM (active)

CC(=O)N1[C@H](CN(C(=O)c2ccc(F)cc2)C(C)C)[C@H](c2ccccc2)[C@@H]1CO
AC50 [30]: 10.5 µM (active)

C/C(=N\Nc1ccccc1[N+](=O)[O-])c1ccccc1O
EC50 [31]: > 67.6 µM (inactive)
EC50 [32]: > 67.6 µM (inactive)

CC(=O)Nc1cc2nn(-c3ccccc3)nc2cc1Cl
AC50 [33]: 4.99 µM (active)

O=S(=O)(NCC(Nc1ccc(Cl)cc1)c1ccccc1)c1ccccc1 (centres undefined)
IC50 [34]: 11.4 µM (inactive)
IC50 [35]: > 69.5 µM (inactive)

COc1cccc(S(=O)(=O)N2C[C@@H]3N[C@H](C2)[C@@H]3c2ccc(-c3cccc(C)c3)cc2)c1
AC50 [36]: 16 µM (active)

CC(=O)c1ccc(N2CCN(C(=O)CCCn3c(=O)[nH]c4ccc(Br)cc4c3=O)CC2)cc1
IC50 [37]: 0.579 µM (active)
IC50 [38]: 25.9 µM (inactive)
IC50 [39]: 53.2 µM (inactive)
IC50 [40]: 1.48 µM (active)

Cc1ccc(SCCN2CCC(C)CCC2=O)cc1 (centres undefined)
EC50 [41]: > 67.5 µM (inactive)

Nc1ccc(C#Cc2ccc3c(=O)c4ccccc4oc3c2)cc1
AC50 [42]: > 52 µM (inactive)
AC50 [43]: 59.6 µM (active)
AC50 [44]: > 52 µM (inactive)

COC(=O)c1ccc(N2C(c3cc(OC)cc(OC)c3)=Cc3ccc(-c4cccnc4)cc3C2CC(=O)C2CC2)cc1 (centres undefined)
EC50 [45]: 38.9 µM (inactive)

O=[N+]([O-])c1ccc(-c2c(-c3ccccc3)ncc3cc(F)ccc23)cc1
EC50 [46]: > 29.9 µM (inactive)
IC50 [47]: > 29.9 µM (inactive)
IC50 [48]: 4.77 µM (active)
EC50 [49]: > 29.9 µM (inactive)
